Data on 4 molecules can be found in PubChem BioAssay AID1259407 (Chemical Carcinogenesis Research Information System (CCRIS), 2018).

For the data set, the system named is CCRIS mutagenicity, Ames/micronucleus/aberration tests. As to the kind of experiment: CCRIS mutagenicity studies.
[1] abbreviates: Test System: AMES SALMONELLA TYPHIMURIUM, Strain/Indicator: TA98, Metabolic Activation: NONE, Method: PREINCUBATION
The mark [2] stands for this setting: Test System: AMES SALMONELLA TYPHIMURIUM, Strain/Indicator: TA100, Metabolic Activation: NONE, Method: PREINCUBATION
Where [3] appears, read: Test System: AMES SALMONELLA TYPHIMURIUM, Strain/Indicator: TA1535, Metabolic Activation: NONE, Method: PREINCUBATION
[4] abbreviates: Test System: AMES SALMONELLA TYPHIMURIUM, Strain/Indicator: TA1537, Metabolic Activation: NONE, Method: PREINCUBATION
The mark [5] stands for this setting: Test System: AMES SALMONELLA TYPHIMURIUM, Strain/Indicator: TA98, Metabolic Activation: NONE, Method: STANDARD PLATE.
[6] abbreviates: Test System: AMES SALMONELLA TYPHIMURIUM, Strain/Indicator: TA100, Metabolic Activation: NONE, Method: STANDARD PLATE.

Active and inactive are the calls of the source. The rule behind the calls is not given here.

Regarding `CC1CS1` (centres undefined), the mutagenic call was “inactive; negative” (Test System: AMES SALMONELLA TYPHIMURIUM, Strain/Indicator: TA98, Metabolic Activation: HAMSTER, LIVER, S-9, AROCLOR 1254, Method: PREINCUBATION); “inactive; negative” under setting [1]; “inactive; negative” (Test System: AMES SALMONELLA TYPHIMURIUM, Strain/Indicator: TA98, Metabolic Activation: RAT, LIVER, S-9, AROCLOR 1254, Method: PREINCUBATION); “inactive; negative” (Test System: AMES SALMONELLA TYPHIMURIUM, Strain/Indicator: TA100, Metabolic Activation: HAMSTER, LIVER, S-9, AROCLOR 1254, Method: PREINCUBATION); “inactive; negative” under setting [2]; “inactive; negative” (Test System: AMES SALMONELLA TYPHIMURIUM, Strain/Indicator: TA100, Metabolic Activation: RAT, LIVER, S-9, AROCLOR 1254, Method: PREINCUBATION). The mutagenic call was “inactive; negative” (Test System: AMES SALMONELLA TYPHIMURIUM, Strain/Indicator: TA1535, Metabolic Activation: HAMSTER, LIVER, S-9, AROCLOR 1254, Method: PREINCUBATION); “inactive; negative” under setting [3]; “inactive; negative” (Test System: AMES SALMONELLA TYPHIMURIUM, Strain/Indicator: TA1535, Metabolic Activation: RAT, LIVER, S-9, AROCLOR 1254, Method: PREINCUBATION); “inactive; negative” (Test System: AMES SALMONELLA TYPHIMURIUM, Strain/Indicator: TA1537, Metabolic Activation: HAMSTER, LIVER, S-9, AROCLOR 1254, Method: PREINCUBATION); “inactive; negative” under setting [4]; “inactive; negative” (Test System: AMES SALMONELLA TYPHIMURIUM, Strain/Indicator: TA1537, Metabolic Activation: RAT, LIVER, S-9, AROCLOR 1254, Method: PREINCUBATION). Further, the mutagenic call (Test System: AMES SALMONELLA TYPHIMURIUM, Strain/Indicator: TA1538, Metabolic Activation: HAMSTER, LIVER, S-9, AROCLOR 1254, Method: PREINCUBATION) was “inactive; negative”; the mutagenic call (Test System: AMES SALMONELLA TYPHIMURIUM, Strain/Indicator: TA1538, Metabolic Activation: NONE, Method: PREINCUBATION) was “inactive; negative”; the mutagenic call (Test System: AMES SALMONELLA TYPHIMURIUM, Strain/Indicator: TA1538, Metabolic Activation: RAT, LIVER, S-9, AROCLOR 1254, Method: PREINCUBATION) was “inactive; negative”; the mutagenic call (Test System: MOUSE LYMPHOMA, Strain/Indicator: L5178Y (TK+/TK-), Metabolic Activation: NONE, Method: SUSPENSION/PLATE) was “active; positive. reevaluation of results: positive”; the mutagenic call (Test System: Mouse lymphoma, Strain/Indicator: L5178Y (tk+/tk-), Metabolic Activation: Rat, Liver, S-9, Aroclor 1254, Method: Suspension/plate) is “active; equivocal (previous evaluation positive)”.

Consider `CC1=C(/C=C/C(C)=C/C=C/C(C)=C/C=C/C=C(C)/C=C/C=C(\C)C=O)C(C)(C)CCC1`, for which the mutagenic call (End Point: In vitro chromosomal aberrations, Test System: Primary rat (Fischer, female) hepatocytes, Metabolic Activation: None) was “active; positive”; the mutagenic call (End Point: In vitro micronucleus, Test System: Primary rat (Fischer, female) hepatocytes, Metabolic Activation: None) is “active; positive”; the mutagenic call under setting [5] was “inactive; negative”; the mutagenic call (Test System: AMES SALMONELLA TYPHIMURIUM, Strain/Indicator: TA98, Metabolic Activation: RAT, LIVER, S-9, AROCLOR 1254, Method: STANDARD PLATE) is “inactive; negative”; the mutagenic call under setting [6] is “inactive; negative”; the mutagenic call (Test System: AMES SALMONELLA TYPHIMURIUM, Strain/Indicator: TA100, Metabolic Activation: RAT, LIVER, S-9, AROCLOR 1254, Method: STANDARD PLATE) is “inactive; negative”.

In the case of `CC(CNC(=O)c1cccnc1)NC(=O)c1cccnc1` (centres undefined), the mutagenic call under setting [5] is “inactive; negative”; the mutagenic call (Test System: AMES SALMONELLA TYPHIMURIUM, Strain/Indicator: TA98, Metabolic Activation: RAT, LIVER, S-9, PHENOBARBITAL AND 5,6-BENZOFLAVONE, Method: STANDARD PLATE) was “inactive; negative”; the mutagenic call under setting [6] is “inactive; negative”; the mutagenic call (Test System: AMES SALMONELLA TYPHIMURIUM, Strain/Indicator: TA100, Metabolic Activation: RAT, LIVER, S-9, PHENOBARBITAL AND 5,6-BENZOFLAVONE, Method: STANDARD PLATE) was “inactive; negative”; the mutagenic call (Test System: AMES SALMONELLA TYPHIMURIUM, Strain/Indicator: TA1535, Metabolic Activation: NONE, Method: STANDARD PLATE) is “inactive; negative”; the mutagenic call (Test System: AMES SALMONELLA TYPHIMURIUM, Strain/Indicator: TA1535, Metabolic Activation: RAT, LIVER, S-9, PHENOBARBITAL AND 5,6-BENZOFLAVONE, Method: STANDARD PLATE) was “inactive; negative”. The mutagenic call was “inactive; negative” (Test System: AMES SALMONELLA TYPHIMURIUM, Strain/Indicator: TA1537, Metabolic Activation: NONE, Method: STANDARD PLATE); “inactive; negative” (Test System: AMES SALMONELLA TYPHIMURIUM, Strain/Indicator: TA1537, Metabolic Activation: RAT, LIVER, S-9, PHENOBARBITAL AND 5,6-BENZOFLAVONE, Method: STANDARD PLATE); “inactive; negative” (Test System: E. COLI, Strain/Indicator: WP2 UVRA, Metabolic Activation: NONE, Method: STANDARD PLATE); “inactive; negative” (Test System: E. COLI, Strain/Indicator: WP2 UVRA, Metabolic Activation: RAT, LIVER, S-9, PHENOBARBITAL AND 5,6-BENZOFLAVONE, Method: STANDARD PLATE).

Take `C[N+](C)(C)CCO`: the mutagenic call by setting is: under setting [1], “inactive; negative”; (Test System: AMES SALMONELLA TYPHIMURIUM, Strain/Indicator: TA98, Metabolic Activation: RAT, LIVER, S-9, PHENOBARBITAL AND BETA-NAPHTHOFLAVONE, Method: PREINCUBATION) “inactive; negative”; under setting [2], “inactive; negative”; (Test System: AMES SALMONELLA TYPHIMURIUM, Strain/Indicator: TA100, Metabolic Activation: RAT, LIVER, S-9, PHENOBARBITAL AND BETA-NAPHTHOFLAVONE, Method: PREINCUBATION) “inactive; negative”; (Test System: AMES SALMONELLA TYPHIMURIUM, Strain/Indicator: TA102, Metabolic Activation: NONE, Method: PREINCUBATION) “inactive; negative”; (Test System: AMES SALMONELLA TYPHIMURIUM, Strain/Indicator: TA102, Metabolic Activation: RAT, LIVER, S-9, PHENOBARBITAL AND BETA-NAPHTHOFLAVONE, Method: PREINCUBATION) “inactive; negative”. Further, the mutagenic call is “inactive; negative” (Test System: AMES SALMONELLA TYPHIMURIUM, Strain/Indicator: TA104, Metabolic Activation: NONE, Method: PREINCUBATION); “inactive; negative” (Test System: AMES SALMONELLA TYPHIMURIUM, Strain/Indicator: TA104, Metabolic Activation: RAT, LIVER, S-9, PHENOBARBITAL AND BETA-NAPHTHOFLAVONE, Method: PREINCUBATION); “inactive; negative” under setting [3]; “inactive; negative” (Test System: AMES SALMONELLA TYPHIMURIUM, Strain/Indicator: TA1535, Metabolic Activation: RAT, LIVER, S-9, PHENOBARBITAL AND BETA-NAPHTHOFLAVONE, Method: PREINCUBATION); “inactive; negative” under setting [4]; “inactive; negative” (Test System: AMES SALMONELLA TYPHIMURIUM, Strain/Indicator: TA1537, Metabolic Activation: RAT, LIVER, S-9, PHENOBARBITAL AND BETA-NAPHTHOFLAVONE, Method: PREINCUBATION). The mutagenic call was “inactive; negative” (Test System: E. COLI, Strain/Indicator: WP2UVRA/PKM101, Metabolic Activation: NONE, Method: PREINCUBATION); “inactive; negative” (Test System: E. COLI, Strain/Indicator: WP2UVRA/PKM101, Metabolic Activation: RAT, LIVER, S-9, PHENOBARBITAL AND BETA-NAPHTHOFLAVONE, Method: PREINCUBATION); “inactive; negative” (Test System: E. COLI, Strain/Indicator: WP2UVRA, Metabolic Activation: NONE, Method: PREINCUBATION); “inactive; negative” (Test System: E. COLI, Strain/Indicator: WP2UVRA, Metabolic Activation: RAT, LIVER, S-9, PHENOBARBITAL AND BETA-NAPHTHOFLAVONE, Method: PREINCUBATION).
